Data published in ChEMBL document CHEMBL1201862, “PubChem BioAssay data set” (2004).
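These data come from cells grown in 96-well plates and exposed to compound for 48 hours at five concentrations. Abbreviation: GI50, concentration required for 50% inhibition of growth.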 Active and inactive are the calls of the source. Cut-off read from the data, not from the text of the source: active = GI50 up to about 1.1 µM and inactive = higher.

Assays:
Assay in all cases: growth of human tumour cells (NCI), 48 h
SK-MEL-2 = system: SK-MEL-2
Malme-3M = system: Malme-3M
IGROV-1 = system: IGROV-1
SF-295 = system: SF-295
OVCAR-8 = system: OVCAR-8
U-251 = system: U-251
HCT-116 = system: HCT-116
UACC-257 = system: UACC-257
MOLT-4 = system: MOLT-4
K562 = system: K562
HT-29 = system: HT-29
OVCAR-5 = system: OVCAR-5
NCI-H226 = system: NCI-H226
NCI-H522 = system: NCI-H522
TK-10 = system: TK-10
LXFL 529 = system: LXFL 529
CAKI-1 = system: CAKI-1
ACHN = system: ACHN

SMILES	GI50 (SK-MEL-2)	GI50 (Malme-3M)	GI50 (IGROV-1)	GI50 (SF-295)	GI50 (OVCAR-8)	GI50 (U-251)	GI50 (HCT-116)	GI50 (UACC-257)	GI50 (MOLT-4)	GI50 (K562)	GI50 (HT-29)	GI50 (OVCAR-5)	GI50 (NCI-H226)	GI50 (NCI-H522)	GI50 (TK-10)	GI50 (LXFL 529)	GI50 (CAKI-1)	GI50 (ACHN)
Cc1cc2occ(-c3ccc(Cl)cc3)c2c(=O)o1	> 100 µM (inactive)	> 100 µM (inactive)	> 100 µM (inactive)	> 100 µM (inactive)	> 100 µM (inactive)	> 100 µM (inactive)	> 100 µM (inactive)	> 100 µM (inactive)	67.9 µM (inactive)	> 100 µM (inactive)	> 100 µM (inactive)	> 100 µM (inactive)	> 100 µM (inactive)	66.5 µM (inactive)	> 100 µM (inactive)	> 100 µM (inactive)	98.6 µM (inactive)	> 100 µM (inactive)
COc1ccc(OC)c(/C=N/N=C(\N)NO)c1	42.3 µM (inactive)	36.8 µM (inactive)	29.6 µM (inactive)	21.9 µM (inactive)	27.7 µM (inactive)	34.4 µM (inactive)	24.5 µM (inactive)	30.5 µM (inactive)	–	6.81 µM (inactive)	36.6 µM (inactive)	27.4 µM (inactive)	16.6 µM (inactive)	14.3 µM (inactive)	19.4 µM (inactive)	4.57 µM (inactive)	8.04 µM (inactive)	12.3 µM (inactive)
C[C@H]1C=C2C(=O)O[C@H]3CC[C@@H](C1)[C@@]23O	2.71 µM (inactive)	7.03 µM (inactive)	6.03 µM (inactive)	4.4 µM (inactive)	3.39 µM (inactive)	6.44 µM (inactive)	2.75 µM (inactive)	10.3 µM (inactive)	1.21 µM (inactive)	2.37 µM (inactive)	3.97 µM (inactive)	4.33 µM (inactive)	12.5 µM (inactive)	2.51 µM (inactive)	4.68 µM (inactive)	2.93 µM (inactive)	3.72 µM (inactive)	4.97 µM (inactive)
O=C1c2cccc3cc([N+](=O)[O-])cc(c23)C(=O)N1CCNCCNCCNCCN1C(=O)c2cccc3cc([N+](=O)[O-])cc(c23)C1=O	0.00995 µM (active)	0.111 µM (active)	0.01 µM (active)	< 0.001 µM (active)	< 0.001 µM (active)	0.00198 µM (active)	< 0.001 µM (active)	0.0311 µM (active)	< 0.001 µM (active)	< 0.001 µM (active)	< 0.001 µM (active)	0.0111 µM (active)	0.124 µM (active)	0.116 µM (active)	0.092 µM (active)	0.01 µM (active)	< 0.001 µM (active)	0.01 µM (active)
CCN(CCCl)CCCNc1c2ccccc2nc2ccc(OC)cc12	0.418 µM (active)	0.603 µM (active)	0.102 µM (active)	0.115 µM (active)	0.0857 µM (active)	0.199 µM (active)	0.0585 µM (active)	1.16 µM (inactive)	0.0158 µM (active)	0.0861 µM (active)	0.0853 µM (active)	0.344 µM (active)	0.0678 µM (active)	0.144 µM (active)	1.01 µM (active)	0.0912 µM (active)	0.0959 µM (active)	0.149 µM (active)
CCCCc1c2c(nc3c1CCc1cc(C=O)c(N)nc1-3)/C(=C/c1ccccc1)CCC2	> 100 µM (inactive)	> 100 µM (inactive)	> 100 µM (inactive)	> 100 µM (inactive)	46.2 µM (inactive)	> 100 µM (inactive)	> 100 µM (inactive)	> 100 µM (inactive)	52.2 µM (inactive)	> 100 µM (inactive)	> 100 µM (inactive)	> 100 µM (inactive)	> 100 µM (inactive)	> 100 µM (inactive)	> 100 µM (inactive)	> 100 µM (inactive)	> 100 µM (inactive)	> 100 µM (inactive)
O=C(Nc1nc2ncn(CCI)c2c(=O)[nH]1)c1ccccc1	> 53.5 µM (inactive)	> 100 µM (inactive)	> 100 µM (inactive)	34 µM (inactive)	31.2 µM (inactive)	28.3 µM (inactive)	> 100 µM (inactive)	> 100 µM (inactive)	> 100 µM (inactive)	> 100 µM (inactive)	> 100 µM (inactive)	> 100 µM (inactive)	23.4 µM (inactive)	28.3 µM (inactive)	31.3 µM (inactive)	> 100 µM (inactive)	> 100 µM (inactive)	> 75 µM (inactive)
CC(O)C(NC(=O)c1ccccc1)C(=O)N(Cc1ccccc1)Cc1ccccc1 (stereo unspecified)	> 100 µM (inactive)	> 100 µM (inactive)	> 100 µM (inactive)	94.4 µM (inactive)	> 100 µM (inactive)	> 100 µM (inactive)	–	80.4 µM (inactive)	61.4 µM (inactive)	97.9 µM (inactive)	> 10 µM (inactive)	> 100 µM (inactive)	> 100 µM (inactive)	7.03 µM (inactive)	> 100 µM (inactive)	> 100 µM (inactive)	18.2 µM (inactive)	> 100 µM (inactive)
O=C(Nc1ccccc1[N+](=O)[O-])C(=O)C(C(=O)c1ccccc1-c1ccccc1)C1OC(=O)c2ccccc21 (stereo unspecified)	16.7 µM (inactive)	13 µM (inactive)	23.7 µM (inactive)	16.6 µM (inactive)	14.8 µM (inactive)	11.6 µM (inactive)	18.2 µM (inactive)	16.6 µM (inactive)	16 µM (inactive)	17.2 µM (inactive)	24 µM (inactive)	20.3 µM (inactive)	6.1 µM (inactive)	12.5 µM (inactive)	24 µM (inactive)	11 µM (inactive)	35.6 µM (inactive)	30.8 µM (inactive)
CCOC(=O)NC/C=C/CO	> 100 µM (inactive)	> 100 µM (inactive)	> 100 µM (inactive)	–	> 100 µM (inactive)	> 100 µM (inactive)	> 100 µM (inactive)	> 100 µM (inactive)	> 100 µM (inactive)	> 100 µM (inactive)	–	–	> 100 µM (inactive)	> 100 µM (inactive)	> 100 µM (inactive)	> 100 µM (inactive)	> 100 µM (inactive)	> 100 µM (inactive)
CC1OC(CC2C=CCc3c(O)c4c(c(O)c32)C(=O)c2ccccc2C4=O)CC(NC(=O)C(F)(F)F)C1O (stereo unspecified)	6.87 µM (inactive)	3.12 µM (inactive)	18.9 µM (inactive)	5.74 µM (inactive)	4.22 µM (inactive)	3.94 µM (inactive)	3.13 µM (inactive)	7.93 µM (inactive)	7.21 µM (inactive)	4.85 µM (inactive)	14.4 µM (inactive)	42.8 µM (inactive)	13.7 µM (inactive)	18.1 µM (inactive)	2.29 µM (inactive)	6.87 µM (inactive)	7.55 µM (inactive)	10.9 µM (inactive)
N#CC(C(=O)C(=O)Nc1c(Cl)cccc1Cl)c1ccccc1 (stereo unspecified)	> 10 µM (inactive)	> 10 µM (inactive)	> 10 µM (inactive)	0.302 µM (active)	> 100 µM (inactive)	> 10 µM (inactive)	> 10 µM (inactive)	> 10 µM (inactive)	> 10 µM (inactive)	> 10 µM (inactive)	> 10 µM (inactive)	0.906 µM (active)	> 10 µM (inactive)	> 10 µM (inactive)	> 10 µM (inactive)	> 10 µM (inactive)	> 10 µM (inactive)	> 10 µM (inactive)
Oc1cc2c(cc1O)-c1[nH]ncc1CC2	64.9 µM (inactive)	59.8 µM (inactive)	31.6 µM (inactive)	49.1 µM (inactive)	37.9 µM (inactive)	18.2 µM (inactive)	51.1 µM (inactive)	58.7 µM (inactive)	22.4 µM (inactive)	32.7 µM (inactive)	37.6 µM (inactive)	63.4 µM (inactive)	18.6 µM (inactive)	11.7 µM (inactive)	75 µM (inactive)	31.3 µM (inactive)	33.6 µM (inactive)	21.6 µM (inactive)
Cc1ccc(Sc2ccccc2N)cc1	35.7 µM (inactive)	46.5 µM (inactive)	37.7 µM (inactive)	78.2 µM (inactive)	52.2 µM (inactive)	67.3 µM (inactive)	35.6 µM (inactive)	33.4 µM (inactive)	18.4 µM (inactive)	37.4 µM (inactive)	31.1 µM (inactive)	> 100 µM (inactive)	17.5 µM (inactive)	14.8 µM (inactive)	70.5 µM (inactive)	16.8 µM (inactive)	21.6 µM (inactive)	37.7 µM (inactive)
CCc1cccc(C(C)C)c1NC(=O)CCl	> 100 µM (inactive)	> 100 µM (inactive)	> 100 µM (inactive)	> 100 µM (inactive)	–	85.1 µM (inactive)	> 100 µM (inactive)	> 100 µM (inactive)	> 100 µM (inactive)	> 100 µM (inactive)	> 100 µM (inactive)	–	> 100 µM (inactive)	35.6 µM (inactive)	> 100 µM (inactive)	> 100 µM (inactive)	> 100 µM (inactive)	90.2 µM (inactive)
CC(=O)OCSc1ncnc2c1ncn2CN1CCOCC1	> 100 µM (inactive)	24.9 µM (inactive)	52.5 µM (inactive)	49.9 µM (inactive)	28.9 µM (inactive)	47.8 µM (inactive)	14.4 µM (inactive)	53.5 µM (inactive)	4.12 µM (inactive)	0.841 µM (active)	13.9 µM (inactive)	18.5 µM (inactive)	> 100 µM (inactive)	3.27 µM (inactive)	7.05 µM (inactive)	> 100 µM (inactive)	6.37 µM (inactive)	33 µM (inactive)
